Source: PubChem BioAssay (NCI)
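A five-concentration, 48-hour dose response in 96-well plates underlies each endpoint, interpolated linearly between surrounding concentrations. Here, GI50 denotes the concentration required for 50% inhibition of growth. TGI denotes the concentration required for complete inhibition of growth.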

Columns and labels:
Assay in all cases: NCI anticancer screen, dose series, 48 h
CAKI-1 renal = tested on: CAKI-1 renal
UACC-257 melanoma = tested on: UACC-257 melanoma
MALME-3M melanoma = tested on: MALME-3M melanoma
OVCAR-8 ovarian = tested on: OVCAR-8 ovarian
SNB-75 CNS = tested on: SNB-75 CNS
CCRF-CEM leukemia = tested on: CCRF-CEM leukemia
786-0 renal = tested on: 786-0 renal
TK-10 renal = tested on: TK-10 renal
BT-549 breast = tested on: BT-549 breast
HS 578T breast = tested on: HS 578T breast

| SMILES | TGI (CAKI-1 renal) | TGI (UACC-257 melanoma) | TGI (MALME-3M melanoma) | TGI (OVCAR-8 ovarian) | TGI (SNB-75 CNS) | TGI (CCRF-CEM leukemia) | TGI (786-0 renal) | TGI (TK-10 renal) | TGI (BT-549 breast) | TGI (HS 578T breast) | GI50 (CCRF-CEM leukemia) | GI50 (CAKI-1 renal) | GI50 (UACC-257 melanoma) | GI50 (BT-549 breast) | GI50 (MALME-3M melanoma) | GI50 (SNB-75 CNS) | GI50 (TK-10 renal) |
| --- | --- | --- | --- | --- | --- | --- | --- | --- | --- | --- | --- | --- | --- | --- | --- | --- | --- |
| CN(C)c1ccc(/C=C/C(=O)O)cc1 | > 100 µM | > 100 µM | > 100 µM | > 100 µM | > 100 µM | > 100 µM | – | – | – | – | – | – | – | – | – | – | – |
| Cn1ccnc1CCc1ccc(Cl)c(Cl)c1 | > 100 µM | > 100 µM | > 100 µM | > 100 µM | > 100 µM | > 100 µM | > 100 µM | > 100 µM | – | – | – | – | – | – | – | – | – |
| C[n+]1c2ccccc2c(/C=N\NS(=O)(=O)c2ccc(Cl)cc2)c2ccccc21 | > 100 µM | > 100 µM | > 100 µM | > 100 µM | > 100 µM | > 100 µM | > 100 µM | > 100 µM | – | – | – | – | – | – | – | – | – |
| COc1ccc2[nH]c(C(=O)N3CC(CCl)c4c3cc(N)c3ccccc43)cc2c1 (stereo not given) | < 0.01 µM | – | – | < 0.0177 µM | – | 0.0681 µM | – | 11.4 µM | < 0.0261 µM | – | – | – | – | – | – | – | – |
| CC(=O)Oc1cc(OC(C)=O)c2c(C)cc(=O)oc2c1 | – | > 100 µM | > 100 µM | > 100 µM | > 100 µM | > 100 µM | > 100 µM | > 100 µM | – | > 100 µM | – | – | – | – | – | – | – |
| COC(=O)c1ccccc1C1=C([N+](=O)[O-])C(c2ccccc2)C(C#N)=C(N)O1 (stereo not given) | – | > 100 µM | – | > 100 µM | > 100 µM | > 100 µM | > 100 µM | > 100 µM | – | > 100 µM | – | – | – | – | – | – | – |
| CC1=CCC[C@H]2[C@](C)(CC3=CC(=O)C(Sc4ccccc4)=CC3=O)[C@@H](C)CC[C@]12C | 36.7 µM | 32.5 µM | – | 26.4 µM | 54.5 µM | 17.4 µM | 32.2 µM | – | 34.1 µM | – | 3.89 µM | – | – | – | – | – | – |
| O=[N+]([O-])c1ccc([N+]2=NC(c3ccccc3)=NN(c3ccccc3)C2)cc1 | > 100 µM | > 100 µM | > 100 µM | > 100 µM | > 100 µM | > 100 µM | > 100 µM | > 100 µM | – | – | – | – | – | – | – | – | – |
| COc1cccc(-c2nccc3c(OCc4ccccc4)c(OC)c(OC)cc23)c1 | – | > 100 µM | > 100 µM | > 100 µM | > 100 µM | > 100 µM | – | > 100 µM | – | – | – | – | – | – | – | – | – |
| N[C@H](CCC(=O)NCP(=O)(O)O)C(=O)O | – | > 100 µM | > 100 µM | > 100 µM | – | – | > 100 µM | 25.6 µM | > 100 µM | > 100 µM | – | – | – | – | – | – | – |
| CC12CCC(C(=Nc3cc(C(F)(F)F)cc(C(F)(F)F)c3)C1=O)C2(C)C (stereo not given) | > 100 µM | > 100 µM | 69.4 µM | > 100 µM | – | > 100 µM | > 100 µM | > 100 µM | > 100 µM | – | – | – | – | – | – | – | – |
| Cc1c(-c2nnc(-c3ccccc3)o2)c(=O)n(-c2ccccc2)n1C | – | > 100 µM | > 100 µM | > 100 µM | > 100 µM | > 100 µM | > 100 µM | > 100 µM | – | – | – | – | – | – | – | – | – |
| O=C(CSc1nnc(-c2ccc(N=Cc3ccc(Cl)cc3)cc2)o1)Nc1ccc([N+](=O)[O-])cc1 | – | 44.3 µM | > 100 µM | > 100 µM | 58.1 µM | 47.6 µM | 36.1 µM | > 100 µM | – | – | – | – | – | – | – | – | – |
| Cc1c(O)c(OC2OC(CO)C(O)C(O)C2O)cc2c1C=C[C@@H]1[C@@]2(C)C(=O)C[C@]2(C)[C@@H]([C@@](C)(O)C(=O)CCC(C)(C)O)[C@H](O)C[C@@]12C (stereo not given in full) | 36.5 µM | 47.2 µM | 50 µM | > 100 µM | 62.9 µM | > 100 µM | 74.3 µM | 33.4 µM | 49.5 µM | – | – | – | – | – | – | – | – |
| Nc1ccc2ccc(-c3ccc[nH]3)nc2n1 | > 100 µM | > 100 µM | > 100 µM | > 100 µM | > 100 µM | – | > 100 µM | > 100 µM | > 100 µM | – | – | – | – | – | – | – | – |
| CCCCn1c2ccccc2c2ccc3c(c21)C(=O)C=CC3=O | > 100 µM | > 100 µM | > 100 µM | > 100 µM | 0.638 µM | – | > 100 µM | > 100 µM | – | – | – | – | – | – | – | – | – |
| Clc1ccc(C2CC(c3cccc(Nc4ccncc4)c3)=NN2c2cc(Cl)cc(Cl)c2)cc1 (stereo not given) | 3.13 µM | 4.42 µM | 3.68 µM | – | 2.93 µM | > 100 µM | – | 3.7 µM | 3.57 µM | – | 3.52 µM | 1.61 µM | 2.12 µM | 1.85 µM | 1.77 µM | 1.4 µM | 1.93 µM |
| CN[C@@H](C)[C@@H](O)c1ccccc1 | > 100 µM | > 100 µM | > 100 µM | > 100 µM | > 100 µM | > 10 µM | > 100 µM | > 100 µM | – | > 100 µM | – | – | – | – | – | – | – |
| CCCCCN(CCCCC)CC(C)(C)C(O)c1ccc(OC)c2ccccc12 (stereo not given) | 28 µM | 26.1 µM | 29.9 µM | 22.9 µM | 51.9 µM | > 100 µM | 35.7 µM | 25.6 µM | – | 39.8 µM | – | – | – | – | – | – | – |
| COP(=O)(O)C(N)Cc1c[nH]c2ccccc12 (stereo not given) | > 100 µM | > 100 µM | – | > 100 µM | – | > 100 µM | – | > 100 µM | – | > 100 µM | – | – | – | – | – | – | – |
